From paper PMC12284294 (iScience, 2025)
Where two headings read alike, the source gives them in different places.

Legend:
[1] = system: FPR1, FPR2, FPR3, PMN; format: cell-based, human
[2] = system: human polymorphonuclear granulocytes (PMN; neutrophils); format: cell-based
[3] = molecular target: T1, FPR1 (Homo sapiens, UniProt P21462); format: cell-based
T1 construct: expressed in transfected cells; host or cells: HEK293T
T1 sequence (P21462 1-350): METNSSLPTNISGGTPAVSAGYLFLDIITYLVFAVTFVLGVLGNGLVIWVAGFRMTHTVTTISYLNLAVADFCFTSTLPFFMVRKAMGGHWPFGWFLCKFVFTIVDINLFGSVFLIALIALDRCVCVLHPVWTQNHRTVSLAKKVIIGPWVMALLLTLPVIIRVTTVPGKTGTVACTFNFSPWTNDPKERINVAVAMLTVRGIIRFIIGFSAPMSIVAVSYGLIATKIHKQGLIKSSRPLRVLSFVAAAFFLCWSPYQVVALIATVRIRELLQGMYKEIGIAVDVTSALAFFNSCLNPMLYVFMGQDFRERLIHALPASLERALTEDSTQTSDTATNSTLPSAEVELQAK

[4] = […], it matches an identified peptide or IgG epitope of COVID-19 patients
[5] = SARS-CoV-2 omicron B.1.1.529 spike pool peptides, 10 µM, PMN, n=6

Sequence	non-activators of FPR1 and PMNs: PMNs [2, 5]	non-activators of FPR1 and PMNs: FPR1 [3]	also measured
DYSVLYNLAPFFTFKCYGV	–	–	Match with activator (region): Receptor [1, 4]: PMN
DYSVLYNLAPFFTFKCYGVSPTK	–	–	Match with activator (region): Receptor [1, 4]: FPR3
EQYIKWPWYIWL	–	–	Match with activator (region): Receptor [1]: All FPRs + PMN
GDEVRQIAPGQTGNI	non-activators of FPR1 and PMNs	non-activators of FPR1 and PMNs	–
GHQPYRVVVLSFELL	–	–	significant PMN activators (group of the spike peptide pool screening) [2, 5]: significant PMN activators; significant FPR1 activators (group of the spike peptide pool screening) [3]: significant FPR1 activators
GNIADYNYKLPDDFT	non-activators of FPR1 and PMNs	non-activators of FPR1 and PMNs	–
GNKPCNGVAGFNCYF	non-activators of FPR1 and PMNs	non-activators of FPR1 and PMNs	–
IEKSNIIRGWIFGTT	non-activators of FPR1 and PMNs	non-activators of FPR1 and PMNs	–
IFSRLDKVEAEVQID	–	non-activators of FPR1 and PMNs	non-activators of FPR1 and PMNs: PMNs [2]: non-activators of FPR1 and PMNs
IIVREPEDLPQGFSA	non-activators of FPR1 and PMNs	non-activators of FPR1 and PMNs	–
ISTEIYQAGNKPCNG	non-activators of FPR1 and PMNs	non-activators of FPR1 and PMNs	–
IYQAGNKPCNGVAGF	non-activators of FPR1 and PMNs	non-activators of FPR1 and PMNs	–
KHTPIIVREPEDLPQ	non-activators of FPR1 and PMNs	non-activators of FPR1 and PMNs	–
KIYSKHTPIIVREPE	non-activators of FPR1 and PMNs	non-activators of FPR1 and PMNs	–
KLDSKVSGNYNYLYR	non-activators of FPR1 and PMNs	non-activators of FPR1 and PMNs	–
KQLSSKFGAISSVLN	non-activators of FPR1 and PMNs	non-activators of FPR1 and PMNs	–
KRALTGIAVEQDKNT	non-activators of FPR1 and PMNs	non-activators of FPR1 and PMNs	–
LKSYSFRPTYGVGHQ	non-activators of FPR1 and PMNs	non-activators of FPR1 and PMNs	–
LLLQYGSFCTQLKRA	non-activators of FPR1 and PMNs	non-activators of FPR1 and PMNs	–

Sequence	non-activators of FPR1 and PMNs: PMNs [2, 5]	non-activators of FPR1 and PMNs: FPR1 [3]	also measured
LLLQYGSFCTQLKRALTGI	–	–	Match with activator (region): Receptor [1]: FPR3
LQDVVNHNAQALNTL	non-activators of FPR1 and PMNs	non-activators of FPR1 and PMNs	–
LYNLAPFFTFKCYGV	–	–	significant PMN activators (group of the spike peptide pool screening) [2, 5]: significant PMN activators; significant FPR1 activators (group of the spike peptide pool screening) [3]: significant FPR1 activators
NCVADYSVLYNLAPF	non-activators of FPR1 and PMNs	non-activators of FPR1 and PMNs	–
NDGVYFASIEKSNII	non-activators of FPR1 and PMNs	non-activators of FPR1 and PMNs	–
NGLKGTGVLTESNKK	non-activators of FPR1 and PMNs	non-activators of FPR1 and PMNs	–
NKCVNFNFNGLKGTG	non-activators of FPR1 and PMNs	non-activators of FPR1 and PMNs	–
NTLVKQLSSKFGAIS	non-activators of FPR1 and PMNs	non-activators of FPR1 and PMNs	–
NVTWFHVISGTNGTK	–	–	significant PMN activators (group of the spike peptide pool screening) [2, 5]: significant PMN activators; significant FPR1 activators (group of the spike peptide pool screening) [3]: significant FPR1 activators
PFFSNVTWFHVISGT	–	–	significant PMN activators (group of the spike peptide pool screening) [2, 5]: significant PMN activators; significant FPR1 activators (group of the spike peptide pool screening) [3]: significant FPR1 activators
PFLDHKNNKSWMESE	non-activators of FPR1 and PMNs	non-activators of FPR1 and PMNs	–
PGQTGNIADYNYKLP	non-activators of FPR1 and PMNs	non-activators of FPR1 and PMNs	–
PGTNTSNQVAVLYQG	non-activators of FPR1 and PMNs	non-activators of FPR1 and PMNs	–
PPIKYFGGFNFSQIL	non-activators of FPR1 and PMNs	non-activators of FPR1 and PMNs	–
QTRAGCLIGAEYVNN	non-activators of FPR1 and PMNs	non-activators of FPR1 and PMNs	–
QVKQIYKTPPIKYFGGFNFSQILPDPS	–	–	Match with activator (region): Receptor [1]: FPR3
RFPNITNLCPFDEVF	non-activators of FPR1 and PMNs	non-activators of FPR1 and PMNs	–
RQIAPGQTGNIADYN	non-activators of FPR1 and PMNs	non-activators of FPR1 and PMNs	–
SFRPTYGVGHQPYRV	non-activators of FPR1 and PMNs	non-activators of FPR1 and PMNs	–

Sequence	non-activators of FPR1 and PMNs: PMNs [2, 5]	non-activators of FPR1 and PMNs: FPR1 [3]	also measured
SHRRARSVASQSIIA	non-activators of FPR1 and PMNs	non-activators of FPR1 and PMNs	–
SKFGAISSVLNDIFS	non-activators of FPR1 and PMNs	non-activators of FPR1 and PMNs	–
STASALGKLQDVVNH	non-activators of FPR1 and PMNs	non-activators of FPR1 and PMNs	–
TQTKSHRRARSVASQ	non-activators of FPR1 and PMNs	non-activators of FPR1 and PMNs	–
TSNQVAVLYQGVNCT	non-activators of FPR1 and PMNs	non-activators of FPR1 and PMNs	–
TYGVGHQPYRVVVLS	–	–	significant PMN activators (group of the spike peptide pool screening) [2, 5]: significant PMN activators; significant FPR1 activators (group of the spike peptide pool screening) [3]: significant FPR1 activators
TYGVGHQPYRVVVLSFELL	–	–	Match with activator (region): Receptor [1, 4]: PMN + FPR1
VAVLYQGVNCTEVPV	non-activators of FPR1 and PMNs	non-activators of FPR1 and PMNs	–
VLNDIFSRLDKVEAE	non-activators of FPR1 and PMNs	non-activators of FPR1 and PMNs	–
VLPFNDGVYFASIEK	non-activators of FPR1 and PMNs	non-activators of FPR1 and PMNs	–
VLPFNDGVYFASIEKSNIIRGWIFGTT	–	–	Match with activator (region): Receptor [1]: FPR3
VNHNAQALNTLVKQL	non-activators of FPR1 and PMNs	non-activators of FPR1 and PMNs	–
VNHNAQALNTLVKQLSSKFGAISSVLNDIFS	–	–	Match with activator (region): Receptor [1]: FPR3
WNSNKLDSKVSGNYN	non-activators of FPR1 and PMNs	non-activators of FPR1 and PMNs	–
YFASIEKSNIIRGWI	non-activators of FPR1 and PMNs	non-activators of FPR1 and PMNs	–
YFGGFNFSQILPDPS	non-activators of FPR1 and PMNs	non-activators of FPR1 and PMNs	–
YGSFCTQLKRALTGI	non-activators of FPR1 and PMNs	non-activators of FPR1 and PMNs	–
YQGVNCTEVPVAIHA	non-activators of FPR1 and PMNs	non-activators of FPR1 and PMNs	–
